Test results as given in article PMC6472409, “Dishevelled-3 conformation dynamics analyzed by FRET-based biosensors reveals a key role of casein kinase 1” (Nature Communications, 2019).
Several values for one entry are separate records, joined by “and”; a condition that tells them apart may be missing. Identical values can stand only once.

What was measured:
Wnt/β-catenin pathway = assay: Dual Luciferase TopFlash/Renilla Reporter Assay; type: cell-based, human; details: for TopFlash relative to ctrl (= 1): Suppl. Fig. 2a; for TopFlash FlAsH III (CK1e-/-), relative to ctrl (= 1): Suppl. Fig. 4f, CK1e-/- cells
Protocol: Cells were transfected 24 h after seeding with 0.1 μg of Super8X TopFlash construct, 0.1 μg of Renilla luciferase construct, and 0.1 μg of corresponding plasmids per well for 6 h in a 24-well plate. As for the ECFP-DVL3 FIII wt stable cell lines, transfection was followed by 4 h induction of tetracycline (1 µg/ml) and 8 h treatment of CM:DMEM (1:1 ratio). For performing this assay, Promega Dual Luciferase assay kit (Promega, #E1910) was used according to the manufacturer’s instructions. Luminescence was measured by a Hidex Bioscan Plate Chameleon Luminometer. Results are depicted as the ratio of TopFlash and Renilla signal (TopFlash fold induction), which was normalized for each experiment to certain control column (normalized TopFlash fold induction). Data were analyzed by MS Excel 2007 and GraphPad Prism 6 and results were shown as the means ± S.D. (number of experiments indicated ad hoc).

[1] = test system: DVL3 subcellular localization in HEK293 cells; assay: DVL3 subcellular localization (punctae/even), immunofluorescence; type: cell-based, human
[2] = test system: DVL3 membrane recruitment by FZD6 in HEK293 cells; assay: FZD6-dependent membrane recruitment of DVL3, immunofluorescence; type: cell-based, human; set-up: key to Non-recruited (DVL3 membrane recruitment): number of cells out of 100 positive cells scored; details: Fig 8c
Source text: First, we analyzed the preferred subcellular localization of DVL3 (as introduced in Fig. 2c)[10],[14]. […] Next, we investigated if DVL3 conformation correlates with the capacity of DVL3 to be recruited by FZD6, a key Wnt receptor, to the plasma membrane. For this purpose, we co-expressed FZD6 and analyzed membrane recruitment of DVL3 in FZD6-positive cells by immunofluorescence. Individual cells were categorized as: not recruited (Fig. 8b, no DVL3 in the membrane), partially recruited (clear membrane as well as cytoplasmic localization), and fully recruited (predominantly plasma membrane localization, Fig. 8c, left). […] In the last readout we analyzed the capacity of DVL3 to activate downstream Wnt/β-catenin pathway monitored by TopFlash reporter assay (Fig. 8d). […] On the other hand, under conditions that favor the open conformation both activation as well as inhibition of the Wnt/β-catenin pathway was evident.
For immunofluorescence, cells were seeded (40,000 per well) on 24-well plates with gelatin-coated coverslips and transfected, as indicated, with 0.1 μg of each corresponding plasmid (0.3 μg of mCherry-FZD6) for 6 h. For western blotting and Dual Luciferase TopFlash/Renilla Reporter Assay, cells were seeded (60,000 per well) directly on 24-well plates with 0.1 μg of each corresponding plasmid (if not indicated otherwise) for 6 h. For coimmunoprecipitation, cells were seeded (4.4 × 10^6) on 10-cm dishes and transfected with 1 μg of each corresponding plasmid. The next day after seeding, cells were transfected using polyethyleneimine (PEI) in a stoichiometry of 6 μl of PEI per 1 μg of DNA for 6 h and were harvested 24 h after transfection. The following plasmids used in HEK293 cells have been described previously: FLAG-DVL3 wt[47], CK1ϵ wt[48], mCherry-FZD6 (ref. [37]), and dominant-negative CK1ϵ P3 (ref. [33]). The ECFP-DVL3 wt plasmid was made by Gateway Technology (via LR recombination according to the manufacturer’s instructions; Thermo Fisher Scientific, #11791020) from the donor plasmid pDONR221 DVL3 (DNASU, #FLH178665.01x) and the destination plasmid pdECFP (LMBP, #4548). The HA-DVL3 wt plasmid was made by Gateway Technology from the donor plasmid pDONR221 DVL3 (DNASU, #FLH178665.01x) and the destination plasmid pcDNA3.1 N-term HA (gift from Erich Nigg).
Cells were seeded on gelatin-coated coverslips in 24-well plates and were transfected the next day. Cells were fixed 24 h later in fresh 4% paraformaldehyde, permeabilized with 0.5% Triton X-100, blocked with PBS/BSA/Triton/Azide buffer (PBTA) [3% (wt/vol) BSA, 0.25% Triton, 0.01% NaN3] for 1 h, and incubated overnight with primary antibodies (in dilution 1:500) in PBTA at 4 °C. The next day, the coverslips were washed in PBS and incubated with secondary antibodies conjugated to Alexa Fluor 488 (Invitrogen A11001) or/and Alexa Fluor 594 (Invitrogen A11058) (all in dilution 1:1000), washed with PBS [in case of samples containing FLAG-DVL3 WT and derived variants stained with DAPI (1:5000)], and all coverslips were mounted on microscopic slides. Cells were then visualized on an Olympus IX51 fluorescent microscope using ×40 air or ×100 oil objectives and/or an Olympus Fluoview 500 confocal laser scanning microscope IX71 using ×100 oil objective. One hundred positive cells per experiment (n = 3) were analyzed and scored according to their phenotype into two/three categories (punctae/even); or non-recruited/partially/fully recruited for FZD6-dependent recruitment of DVL3. The antibodies used were as follows: anti-FLAG M2 (Sigma-Aldrich, #F1804), anti-DVL3 (Santa Cruz, #sc-8027), anti-CK1ɛ (Santa Cruz, #sc-6471), anti-RFP (Chromotek, #5h9) and anti-GFP (Fitzgerald, #20R-GR-011).

Xenopus laevis embryos = assay: Convergent extension (CE) / neural tube defects in Xenopus embryos (Wnt/PCP readout); type: in vivo; details: Dorsal injection, 100pg/embryo
Source text: In the cell culture model we were unable to dissect the effects on the non-canonical Wnt/PCP pathway, and as such we turned into the Xenopus embryo model. Alterations in the Wnt/PCP pathway activity result in the convergent extension (CE) defects (Supplementary Fig. 7b, right). In order to avoid any artifacts, we tested the constitutively open and closed variants of xDvl3 based on point mutations or small deletions—namely open xDvl3 ΔC and xDvl3 (S267E/S310E) and closedxDvl3 (S267A/S310A). Phosphorylation sites in the PDZ domain are fully conserved between human and Xenopus (for alignment see Supplementary Fig. 5a) and hDVL3 S268/S311 corresponds to xDvl3 S267/S310.
The work with Xenopus laevis was carried out according to the German animal use and care law (Das Tierschutzgesetz) and approved by the local authorities and committees (animal care and housing approval: I/39/EE006, Veterinäramt Erlangen; animal experiments approval: 54-2532.2-8/08, German state administration Bavaria/Regierung von Mittelfranken). The generation and cultivation of Xenopus embryos was done in accordance with general protocols and staged after the normal table of Niewkoop and Faber (1994)[53].
RNA for microinjection was synthesized from plasmids pCS2 myc-xDvl3 (ref. [54]), pCS2 myc-xDvl3 ΔALL (lacking sequence corresponding to aa 338–350, 609–619, and 693–705 in xDvl3), pCS2 xDvl3 (S267A/S310A), pCS2 xDvl3 (S267E/S310E), pCS2 xDvl3 ΔC, and pCS2 xCK1ε[55], respectively, using the mMessage mMachine Kit (Ambion). Embryos were injected at the four-cell stage either into the two ventral blastomeres for testing the constructs' ability to induce a secondary body axis. Injection amounts of synthetic RNA were 500 pg for myc-xDvl3 wild type and the myc-xDvl3 ∆ALL variant, and 150 pg for xCK1ε RNA. For the analysis of morphogenetic defects, four-cell stage embryos were injected into the two dorsal blastomeres with 100 pg myc-xDvl3 RNA and the corresponding variant RNAs. After injection, the embryos were cultivated until they reached stage 26, fixed, and analyzed for axis duplication or morphogenetic defects, respectively.

[3] = sensor FlAsH III, replicate of grid row r5
[4] = sensor FlAsH III, replicate of grid row r6
[5] = sensor FlAsH III, replicate of grid row r7
[6] = Fig 2c, DVL3-FLAG, 10 μM inhibitor, replicate 1, 100 cells
[7] = Fig 8b, ECFP-DVL3 wt, HEK293 wt, inhibitor, exp1-exp3, 100 cells each, listed as INH

With `Nc1nccc(-c2c(-c3ccc(F)cc3)ncn2C2CCCCC2)n1` [PF670462, reference compound] the “TopFlash/Renilla activation, in words” value (Wnt/β-catenin pathway; DVL3 wt + inhibitor, HEK293 cells, Fig 8d) was “no (or negligible) TopFlash/Renilla activation”, the “TopFlash relative to DVL3 wt (= 1)” value (Wnt/β-catenin pathway; Fig 8d, replicate of grid row r4) was 0.13 and the “TopFlash relative to DVL3 wt (= 1)” value (Wnt/β-catenin pathway; Fig 8d, replicate of grid row r5) was 0.1. The “TopFlash relative to DVL3 wt (= 1)” value (Wnt/β-catenin pathway; Fig 8d, replicate of grid row r6) was 0.2, the “TopFlash relative to ctrl (= 1)” value (Wnt/β-catenin pathway; sensor FlAsH I, replicate of grid row r5) was 0.09288 and the “TopFlash relative to ctrl (= 1)” value (Wnt/β-catenin pathway; sensor FlAsH I, replicate of grid row r6) was 0.06555. The “TopFlash relative to ctrl (= 1)” value (Wnt/β-catenin pathway; sensor FlAsH I, replicate of grid row r7) was 0.095, the “TopFlash relative to ctrl (= 1)” value (Wnt/β-catenin pathway; sensor FlAsH II, replicate of grid row r5) was 0.04123 and the “TopFlash relative to ctrl (= 1)” value (Wnt/β-catenin pathway; sensor FlAsH II, replicate of grid row r6) was 0.0401. For the same molecule, the “TopFlash relative to ctrl (= 1)” value (Wnt/β-catenin pathway; sensor FlAsH II, replicate of grid row r7) was 0.09362, the “TopFlash relative to ctrl (= 1)” value (Wnt/β-catenin pathway; [3]) was 0.07646 and the “TopFlash relative to ctrl (= 1)” value (Wnt/β-catenin pathway; [4]) was 0.1238. For the same molecule, the “TopFlash relative to ctrl (= 1)” value (Wnt/β-catenin pathway; [5]) was 0.1277, the “TopFlash relative to ctrl (= 1)” value (Wnt/β-catenin pathway; sensor FlAsH IV, replicate of grid row r5) was 0.0466 and the “TopFlash relative to ctrl (= 1)” value (Wnt/β-catenin pathway; sensor FlAsH IV, replicate of grid row r6) was 0.04626. The “TopFlash relative to ctrl (= 1)” value (Wnt/β-catenin pathway; sensor FlAsH IV, replicate of grid row r7) was 0.05626, the “TopFlash FlAsH III (CK1e-/-), relative to ctrl (= 1)” value (Wnt/β-catenin pathway; [3]) was 0.8229 and the “TopFlash FlAsH III (CK1e-/-), relative to ctrl (= 1)” value (Wnt/β-catenin pathway; [4]) was 0.6189. For the same molecule, the “TopFlash FlAsH III (CK1e-/-), relative to ctrl (= 1)” value (Wnt/β-catenin pathway; [5]) was 1.097, the “Even (%)” value [1, 6] was 1% and the “Punctae (%)” value [1, 6] was 99%. The “Punctae (%)” value ([1]; Fig 2c, DVL3-FLAG, 10 μM inhibitor, replicate 2, 100 cells) was 98%, the “Punctae (%)” value ([1]; Fig 2c, DVL3-FLAG, 10 μM inhibitor, replicate 3, 100 cells) was 99% and the “Even (%)” value [1, 7] was 5% and 11% and 8%. For the same molecule, the “Punctae (%)” value [1, 7] was 95% and 89% and 92%, the “Fully recruited (DVL3 membrane recruitment)” value (“Fully recruited” for short) ([2]; exp1) was 1 and the “Non-recruited (DVL3 membrane recruitment)” value (“Non-recruited” below) ([2]; exp1) was 77. The “Partially recruited (DVL3 membrane recruitment)” value (“Partially recruited” for short) ([2]; exp1) was 22, the “Fully recruited” value ([2]; exp2) was 10 and the “Non-recruited” value ([2]; exp2) was 66. The “Partially recruited” value ([2]; exp2) was 24, the “Fully recruited” value ([2]; exp3) was 15 and the “Non-recruited” value ([2]; exp3) was 59. For the same molecule, the “Partially recruited” value ([2]; exp3) was 26.

B1: WT-Dvl3 (protein, UniProt Q92997 1-716, looked up)
Segment polarity protein …: MGETKIIYHLDGQETPYLVKLPLPAERVTLADFKGVLQRPSYKFFFKSMDDDFGVVKEEISDDNAKLPCFNGRVVSWLVSAEGSHPDPAPFCADNPSELPPPMERTGGIGDSRPPSFHPHAGGGSQENLDNDTETDSLVSAQRERPRRRDGPEHATRLNGTAKGERRREPGGYDSSSTLMSSELETTSFFDSDEDDSTSRFSSSTEQSSASRLMRRHKRRRRKQKVSRIERSSSFSSITDSTMSLNIITVTLNMEKYNFLGISIVGQSNERGDGGIYIGSIMKGGAVAADGRIEPGDMLLQVNEINFENMSNDDAVRVLREIVHKPGPITLTVAKCWDPSPRGCFTLPRSEPIRPIDPAAWVSHTAAMTGTFPAYGMSPSLSTITSTSSSITSSIPDTERLDDFHLSIHSDMAAIVKAMASPESGLEVRDRMWLKITIPNAFIGSDVVDWLYHNVEGFTDRREARKYASNLLKAGFIRHTVNKITFSEQCYYIFGDLCGNMANLSLHDHDGSSGASDQDTLAPLPHPGAAPWPMAFPYQYPPPPHPYNPHPGFPELGYSYGGGSASSQHSEGSRSSGSNRSGSDRRKEKDPKAGDSKSGGSGSESDHTTRSSLRGPRERAPSERSGPAASEHSHRSHHSLASSLRSHHTHPSYGPPGVPPLYGPPMLMMPPPPAAMGPPGAPPGRDLASVPPELTASRQSFRMAMGNPSEFFVDVM
For B1, the “open neural tube (number of embryos)” value (Xenopus laevis embryos; 1. Injection) was 3, the “open neural tube (number of embryos)” value (Xenopus laevis embryos; 2. Injection) was 1 and the “shortened AP axis (number of embryos)” value (Xenopus laevis embryos; 2. Injection) was 0. For the same molecule, the “open neural tube (number of embryos)” value (Xenopus laevis embryos; 3. Injection) was 0, the “shortened AP axis (number of embryos)” value (Xenopus laevis embryos; 3. Injection) was 0 and the “open NT (number of embryos)” value (Xenopus laevis embryos; Graph: sum of injections 1-3) was 4.
